39 molecules from patent publication US20240368163A1, “COMPOUNDS AND METHODS FOR MODULATING SPLICING” (REMIX THERAPEUTICS INC., priority 2021, published 2024) can be followed below.

Read-outs that look alike come from different tables or passages of the source.

The test system of one assay is HTT. Description: Splicing RT-qPCR assay, HTT mRNA canonical junction (CJ) and alternative junction (AJ). Type of assay: cell-based, human. To be noted: for AC50: increase in AJ mRNA. In a few lines: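 First, A673 cells adhered 24 h, while K562 cells were plated directly. Next, compounds were added as an 11-point 3-fold series from 10 uM for 24 h. Finally, lysates went to RT-qPCR, with 2^(−ΔΔCt) values converted to percentage response.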
(Real-time PCR tracks product formation cycle by cycle.)

For the next assay, the system named is MYB. The experiment in a line: HiBiT protein abundance assay, MYB. Type of assay: cell-based, human. To be noted: modified K562 cells. In a few lines: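 Tagged-target degradation assay: HiBiT-modified K562 cells treated 24 h with compound, 10 concentrations up to 10 μM final. Following lysis with LgBiT and substrate, luminescence gave normalized abundance; IC50 derived by logistic interpolation at 50%.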

The mark [1] stands for this setting: Homo sapiens, 24 h, A673 or K562 cells, 24 hours treatment, RT-qPCR.
[2] abbreviates: Homo sapiens, RT-qPCR panel, canonical junction mRNA, compound concentration having 50% response in CJ decrease, read-out: HTT IC50 (decrease in CJ mRNA levels).
Setting [3] is: Homo sapiens, K562, 24 h, Table 13A.
Where [4] appears, read: RT-qPCR panel, canonical junction mRNA, compound concentration having 50% response in CJ decrease, read-out: HTT IC50 (decrease in CJ mRNA levels).
Where [5] appears, read: Homo sapiens, gene panel, CJ qPCR, protocol of Example 142, read-out: HTT IC50 (decrease in CJ mRNA levels).
The mark [6] stands for this setting: Homo sapiens, K562, 24 h, Table 13B.

Usually AC50 stands for the midpoint of the concentration-response curve, whichever way the signal moves. As a reminder, the IC50 is the concentration that gives 50% inhibition. `Fc1cc(-c2ccc(OC3CC4CC(F)(F)C(C3)N4)nn2)c2[nH]ncc2c1-c1cn[nH]c1` (stereo not shown) [Compound 313, 7-[6-({6,6-difluoro-8-azabicyclo[3.2.1]octan-3-yl}oxy)pyridazin-3-yl]-5-fluoro-4-(1H-pyrazol-4-yl)-1H-indazole] gave an AC50 in the assay on HTT (setting [1]) of 100 to 1000 nM. The IC50 in the assay with HTT (setting [2]) is less than 100 nM; in the assay with MYB (setting [3]), 100 to 1000 nM.
In turn, `Fc1cc(-c2ccc(O[C@@H]3C[C@H]4CC[C@@H](C3)N4)nn2)c2sncc2c1-c1cn[nH]c1` [Compound 327] had an AC50 with HTT (setting [1]) of less than 100 nM. Besides, the concentration for half-maximal inhibition (IC50) in the assay with HTT (setting [2]) and in the assay with MYB (setting [3]) was less than 100 nM each time.
`COc1cc(-c2ccc(-c3ccc(N(C)C4CC(C)(C)NC(C)(C)C4)nn3)c3scnc23)cnn1` [Compound 330] had a concentration at half-maximal activity (AC50) in the assay with HTT (setting [1]) of less than 100 nM. For the same molecule, the results for the concentration for half-maximal inhibition (IC50) in the assay on HTT (setting [2]) and in the assay on MYB (setting [3]) were less than 100 nM and 100 to 1000 nM, respectively.
Regarding `CC(C)(C)NC1CCN(c2ccc(-c3ccc(-c4cn[nH]c4)c4ncsc34)nn2)C1` (stereo not shown) [Compound 336], the 50% inhibitory concentration (IC50) with HTT (setting [4]) lay in the range of 100 to 1000 nM; in the assay on HTT (decrease in CJ mRNA, A673 or K562 cells, 24 hours treatment, RT-qPCR, read-out: HTT CJ IC50), 100 to 1000 nM; in the assay on MYB (Table 13A, 24 hours), 100 to 1000 nM.
Regarding `c1nc2c(-c3cn[nH]c3)ccc(-c3ccc(N4CCC(NC5CC5)C4)nn3)c2s1` (stereo not shown) [Compound 337], the IC50 in the assay on HTT (Homo sapiens, 24 h, decrease in CJ mRNA, A673 or K562 cells, 24 hours treatment, RT-qPCR, read-out: HTT CJ IC50) was more than 10000 nM; in the assay with HTT (setting [2]), more than 10000 nM; in the assay with MYB (setting [3]), 100 to 1000 nM. Besides, the concentration at half-maximal activity (AC50) in the assay on HTT (setting [1]) is 1000 to 10000 nM.
Consider `Fc1cc(-c2ccc(N[C@@H]3C[C@H]4CC[C@@H](C3)N4)nn2)c2scnc2c1-c1cn[nH]c1` [Compound 339], for which the AC50 in the assay with HTT (setting [1]) is less than 100 nM. Further, the IC50 with HTT (setting [2]) and in the assay on MYB (setting [3]) was less than 100 nM throughout.
`Cc1ncc(-c2ccc(-c3ccc(O[C@@H]4C[C@H]5CC[C@@H](C4)N5)nn3)c3scnc23)s1` [Compound 348, 7-{6-[(exo)-8-azabicyclo[3.2.1]octan-3-yloxy]pyridazin-3-yl}-4-(2-methyl-1,3-thiazol-5-yl)-1,3-benzothiazole] showed an AC50 in the assay with HTT (setting [1]) of 100 to 1000 nM. Further, the IC50 in the assay on HTT (setting [2]) and in the assay on MYB (setting [3]) was less than 100 nM in each case.
Take `CN(c1ccc(-c2ccc(-c3cn[nH]c3)c3ncsc23)nn1)[C@H]1C[C@H]2COC[C@@H](C1)N2` [Compound 356, (endo)-N-methyl-N-{6-[4-(1H-pyrazol-4-yl)-1,3-benzothiazol-7-yl]pyridazin-3-yl}-3-oxa-9-azabicyclo[3.3.1]nonan-7-amine]: the IC50 is less than 100 nM with HTT (setting [4]) and less than 100 nM in the assay on MYB (Table 13A, 24 hours).
Take `COc1cc(-c2ccc(-c3ccc(O[C@@H]4C[C@H]5CC[C@@H](C4)N5)nn3)c3scnc23)cnn1` [Compound 362]: the AC50 in the assay on HTT (setting [1]) is less than 100 nM. The IC50 in the assay with HTT (setting [2]) and in the assay with MYB (setting [3]) was less than 100 nM each time.
As to `Fc1ccn(-c2ccc(-c3ccc(O[C@@H]4C[C@H]5CC[C@@H](C4)N5)nn3)c3scnc23)n1` [Compound 363], the AC50 in the assay with HTT (setting [1]) fell in the range of 100 to 1000 nM. Further, the IC50 in the assay with HTT (setting [2]) was less than 100 nM; in the assay with MYB (setting [3]) it was 100 to 1000 nM.
For the molecule `CN(c1ncc(-c2ccc(-n3cccn3)c3[nH]ncc23)nn1)[C@@H]1C[C@H]2CCC[C@@H](C1)N2` [Compound 551], the IC50 with HTT (setting [2]) and in the assay with MYB (setting [3]) was less than 100 nM each time.
For `c1cnn(-c2ccc(-c3cnc(N[C@@H]4C[C@H]5CC[C@@H](C4)N5)nn3)c3cn[nH]c23)c1` [Compound 556], the IC50 was less than 100 nM in the assay with HTT (setting [2]) and 100 to 1000 nM in the assay with MYB (setting [3]).
On the same counts, the results for `c1cnn(-c2ccc(-c3cnc(N[C@@H]4C[C@H]5CCC[C@@H](C4)N5)nn3)c3cn[nH]c23)c1` [Compound 561] are less than 100 nM and 100 to 1000 nM.
For the molecule `CC(C)(C)C1CN(c2ncc(-c3ccc(-n4cccn4)c4[nH]ncc34)nn2)CCN1` (stereo not shown) [Compound 572], the IC50 in the assay with HTT (setting [2]) is less than 100 nM; with MYB (setting [3]) it was 100 to 1000 nM.
In the same order, the values of `CN(c1ncc(-c2ccc(-n3cncn3)c3[nH]ncc23)nn1)[C@@H]1C[C@H]2CCC[C@@H](C1)N2` [Compound 574] are less than 100 nM and 100 to 1000 nM.
`CN(c1ncc(-c2ccc(-n3ccnn3)c3[nH]ncc23)nn1)[C@@H]1C[C@H]2CCC[C@@H](C1)N2` [Compound 576]: the values for the 50% inhibitory concentration (IC50) in the assay with HTT (setting [2]) and in the assay on MYB (setting [3]) were less than 100 nM and 100 to 1000 nM, respectively.
On the same counts, the results for `Cc1ncc(-c2ccc(-c3cnc(N(C)[C@@H]4C[C@H]5CCC[C@@H](C4)N5)nn3)c3scnc23)s1` [Compound 578] are less than 100 nM and 100 to 1000 nM.
In the same order, the values of `Cc1nc(-c2ccc(-c3cnc(N(C)[C@@H]4C[C@H]5CCC[C@@H](C4)N5)nn3)c3scnc23)cs1` [Compound 579] are 100 to 1000 nM and 1000 to 10000 nM.
In the same order, the values of `Cc1cc(-c2ccc(-c3cnc(N(C)[C@@H]4C[C@H]5CCC[C@@H](C4)N5)nn3)c3scnc23)sn1` [Compound 580] are less than 100 nM and 100 to 1000 nM.
On to `CC(C)(C)[C@H]1CN(c2ncc(-c3ccc(-n4cccn4)c4[nH]ncc34)nn2)CCN1` [Compound 581], for which the IC50 with HTT (setting [2]) was less than 100 nM; in the assay on MYB (setting [3]) it was 100 to 1000 nM.
As to `COc1nc(-c2ccc(N(C)[C@@H]3C[C@H]4CC[C@@H](C3)N4)nn2)ccc1-c1cn[nH]c1` [Compound 906], the IC50 with HTT (setting [5]) and with MYB (setting [6]) was less than 100 nM in each case.
For the molecule `CN(c1ccc(-c2ccc(-c3cn[nH]c3)cn2)nn1)[C@@H]1C[C@H]2CC[C@@H](C1)N2` [Compound 915], the 50% inhibitory concentration (IC50) lay within 100 to 1000 nM in the assay on HTT (setting [5]) and 1000 to 10000 nM in the assay on MYB (setting [6]).
In the case of `COc1nc(-c2ccc(OC3CC(C)(C)NC(C)(C)C3)nn2)ccc1-c1cn[nH]c1` [Compound 917], the IC50 with HTT (setting [5]) and in the assay with MYB (setting [6]) was 100 to 1000 nM throughout.
As for `COc1nc(-c2ccc(OC3CC(C)(C)NC(C)(C)C3)nn2)ccc1-c1cnn(C)c1` [Compound 918], the IC50 with HTT (setting [5]) and in the assay on MYB (setting [6]) was 100 to 1000 nM throughout.
Turning to `COc1nc(-c2ccc(N(C)C3CC(C)(C)NC(C)(C)C3)nn2)ccc1-c1cn[nH]c1` [Compound 919], the figures for the concentration for half-maximal inhibition (IC50) with HTT (setting [5]) and in the assay on MYB (setting [6]) were less than 100 nM and 100 to 1000 nM, respectively.
On the same counts, the results for `COc1nc(-c2ccc(N(C)C3CC(C)(C)NC(C)(C)C3)nn2)ccc1-c1cnn(C)c1` [Compound 920] are 100 to 1000 nM and 100 to 1000 nM.
On the same counts, the results for `CN(c1ccc(-c2ccc(-c3cn[nH]c3)c(F)n2)nn1)[C@@H]1C[C@H]2CC[C@@H](C1)N2` [Compound 922] are less than 100 nM and less than 100 nM.
On the same counts, the results for `CN(c1ccc(-c2ccc(-c3cn[nH]c3)c(C#N)n2)nn1)[C@@H]1C[C@H]2CC[C@@H](C1)N2` [Compound 930] are less than 100 nM and less than 100 nM.
Turning to `COc1nc(-c2ccc(N(C)[C@@H]3C[C@H]4CC[C@@H](C3)N4)nn2)cc(F)c1-c1cn[nH]c1` [Compound 931], the 50% inhibitory concentration (IC50) in the assay on HTT (setting [5]) and with MYB (setting [6]) was less than 100 nM in each case.
`CN(c1ccc(-c2ccc(-c3cn[nH]c3)c(OC3CC3)n2)nn1)[C@@H]1C[C@H]2CC[C@@H](C1)N2` [Compound 939]: the IC50 in the assay on HTT (setting [5]) and in the assay on MYB (setting [6]) was less than 100 nM throughout.
`COc1cc(-c2ccc(-c3ccc(N(C)[C@@H]4C[C@H]5CC[C@@H](C4)N5)nn3)nc2OC)ncn1` [Compound 954]: the IC50 in the assay on HTT (setting [5]) and in the assay on MYB (setting [6]) was 1000 to 10000 nM in each case.
As to `CN(c1ccc(-c2ccc(-c3cn[nH]c3)c(OC(F)F)n2)nn1)[C@@H]1C[C@H]2CC[C@@H](C1)N2` [Compound 955], the concentration for half-maximal inhibition (IC50) in the assay on HTT (setting [5]) and with MYB (setting [6]) was less than 100 nM each time.
For `COc1nc(-c2ccc(N3CCC(NC(C)(C)C)C3)nn2)ccc1-c1cn[nH]c1` (stereo not shown) [Compound 956], the IC50 was less than 100 nM with HTT (setting [5]) and 100 to 1000 nM with MYB (setting [6]).
On the same counts, the results for `COc1nc(-c2ccc(N(C)[C@@H]3C[C@H]4CC[C@@H](C3)N4)nn2)ccc1-c1ccnc(O)c1` [Compound 961] are 100 to 1000 nM and 1000 to 10000 nM.
For `COc1nc(-c2ccc(O[C@@H]3C[C@H]4CC[C@@H](C3)N4)nn2)ccc1-c1cnc(C)s1` [Compound 962], the IC50 in the assay on HTT (setting [5]) and with MYB (setting [6]) was 100 to 1000 nM throughout.
As for `COc1nc(-c2ccc(OC3CC(C)(C)NC(C)(C)C3)nn2)cc(F)c1-c1cn[nH]c1` [Compound 965], the IC50 was less than 100 nM in the assay with HTT (setting [5]) and 100 to 1000 nM in the assay on MYB (setting [6]).
On the same counts, the results for `CCOc1nc(-c2ccc(OC3CC(C)(C)NC(C)(C)C3)nn2)cc(F)c1-c1cn[nH]c1` [Compound 966] are less than 100 nM and less than 100 nM.
On the same counts, the results for `CCOc1nc(-c2ccc(OC3CC(C)(C)NC(C)(C)C3)nn2)ccc1-c1cn[nH]c1` [Compound 967] are less than 100 nM and 100 to 1000 nM.
In the same order, the values of `COc1nc(-c2ccc(OC3CC4CC(F)(F)C(C3)N4)nn2)cc(F)c1-c1cn[nH]c1` (stereo not shown) [Compound 969] are 1000 to 10000 nM and 100 to 1000 nM.
